Assay results: article PMC11484933, “Active state structures of a bistable visual opsin bound to G proteins” (Nature Communications, 2024)

Experiments:
[1] = biological target: T1, hGi (Gαi1β1γ1 heterotrimer) (Homo sapiens, UniProt P63096); test: GTPase-Glo luminescence assay; format: biochemical; settings: 2 uM G protein, 2 uM GTP stock mixed 1:1; 20 C; with and without JSR1-ATR6.11
T1 construct: gene GNAI1; human Galphai1 with N-terminal TEV-cleavable deca-His tag from E. coli BL21(DE3); Gbeta1gamma1 from transducin of bovine retinae
T1 sequence (P63096 2-354): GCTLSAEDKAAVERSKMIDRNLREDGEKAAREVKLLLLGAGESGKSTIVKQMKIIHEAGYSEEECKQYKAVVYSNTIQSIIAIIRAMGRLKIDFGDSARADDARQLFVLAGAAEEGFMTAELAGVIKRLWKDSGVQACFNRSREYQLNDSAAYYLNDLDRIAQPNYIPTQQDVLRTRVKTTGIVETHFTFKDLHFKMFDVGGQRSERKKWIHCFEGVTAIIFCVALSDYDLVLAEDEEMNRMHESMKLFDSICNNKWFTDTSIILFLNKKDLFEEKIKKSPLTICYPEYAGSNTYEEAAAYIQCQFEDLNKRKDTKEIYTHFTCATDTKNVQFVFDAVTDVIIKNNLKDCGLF
T1 sequence (P62871 2-340 partner): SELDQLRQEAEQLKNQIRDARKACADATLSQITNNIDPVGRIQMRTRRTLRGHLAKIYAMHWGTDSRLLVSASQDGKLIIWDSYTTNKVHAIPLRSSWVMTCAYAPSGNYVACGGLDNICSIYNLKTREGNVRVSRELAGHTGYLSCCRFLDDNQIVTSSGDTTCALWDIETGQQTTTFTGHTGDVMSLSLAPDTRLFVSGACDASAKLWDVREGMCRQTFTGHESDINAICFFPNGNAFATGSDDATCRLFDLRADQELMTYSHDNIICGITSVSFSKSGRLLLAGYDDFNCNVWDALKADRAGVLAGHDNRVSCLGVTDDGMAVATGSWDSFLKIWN
T1 sequence (P02698 2-71 partner): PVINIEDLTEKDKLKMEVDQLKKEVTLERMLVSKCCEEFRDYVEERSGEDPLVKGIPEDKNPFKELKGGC

jsGiq (Gαiqβ1γ2) = biological target: T2, jsGiq (Gαiqβ1γ2) (Homo sapiens, UniProt P63096, A31R/D193S/L194I/D337C/T340K/V342T/I344L/K345Q/D350E/G352N/F354V); test: GTPase-Glo luminescence assay; format: biochemical; settings: 2 uM G protein, 2 uM GTP stock mixed 1:1; 20 C; with and without JSR1-ATR6.11
T2 construct: gene GNAI1; heterotrimer from High Five insect cells, His tag removed with HRV 3C
T2 sequence (P63096 2-354 A31R/D193S/L194I/D337C/T340K/V342T/I344L/K345Q/D350E/G352N/F354V): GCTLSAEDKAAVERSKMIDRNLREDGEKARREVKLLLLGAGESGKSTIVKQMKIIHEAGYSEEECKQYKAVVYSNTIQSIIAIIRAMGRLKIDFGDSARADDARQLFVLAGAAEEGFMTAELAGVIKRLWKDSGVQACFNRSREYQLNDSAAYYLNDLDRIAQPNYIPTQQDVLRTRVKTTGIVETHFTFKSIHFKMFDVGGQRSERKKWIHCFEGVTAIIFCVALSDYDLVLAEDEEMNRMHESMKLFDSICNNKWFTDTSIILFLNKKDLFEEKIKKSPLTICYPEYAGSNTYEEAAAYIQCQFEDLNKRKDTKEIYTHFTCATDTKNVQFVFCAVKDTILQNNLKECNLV
T2 sequence (P62873 2-340 partner): as the sequence (P62871 2-340 partner) above
T2 sequence (P59768 2-68 partner): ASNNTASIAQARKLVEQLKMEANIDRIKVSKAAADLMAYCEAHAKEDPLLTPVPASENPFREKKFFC

Nc1nc2c(ncn2[C@@H]2O[C@H](COP(=O)(O)OP(=O)(O)OP(=O)(O)O)[C@@H](O)[C@H]2O)c(=O)[nH]1 [GTP]
GTP hydrolysis % [1]: GTPase-Glo assay showing GTP depletion for hGi and jsGiq samples | GTP hydrolysis % (jsGiq (Gαiqβ1γ2)): An in vitro activity assay showed that this chimera retains intrinsic GTPase activity
